Experiments:
Assay in all cases: relative viability (nuclei count vs DMSO), 5 days (fraction); higher = more cells survive
[1] = system: ABC-1
Method in brief: (§1)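 A single step with final 0.05% Triton X-100, 1% formaldehyde and 1 ug/ml Hoechst fixed the cells and stained nuclei 5 days after treatment. Lung cancer cell lines in 1536-well plates had been treated by pin tool the day after seeding with one drug alone or a fixed anchor-drug dose plus five library-drug doses (not always all listed) in √10 steps, and nuclei were counted on 4× images. Relative viability is the ratio of nuclei in treated wells to nuclei in vehicle wells, taken as the median of duplicate plates.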

[2] = system: COR-L 105
Method in brief: as §1

[3] = system: ChaGo-K-1
Method in brief: as §1

[4] = system: EMC-BAC-2
Method in brief: as §1

[5] = system: EPLC-272H
Method in brief: as §1

[6] = system: HCC-15
Method in brief: as §1

[7] = system: HCC-78
Method in brief: as §1

[8] = system: HOP-62
Method in brief: as §1

[9] = system: LXF-289
Method in brief: as §1

[10] = system: NCI-H1666
Method in brief: as §1

[11] = system: NCI-H1755
Method in brief: as §1

[12] = system: NCI-H1915
Method in brief: as §1

[13] = system: NCI-H1975
Method in brief: as §1

[14] = system: NCI-H2023
Method in brief: as §1

[15] = system: NCI-H2085
Method in brief: as §1

[16] = system: NCI-H2126
Method in brief: as §1

[17] = system: NCI-H3122
Method in brief: as §1

[18] = system: NCI-H322M
Method in brief: as §1

[19] = system: NCI-H358
Method in brief: as §1

[20] = system: NCI-H441
Method in brief: as §1

[21] = system: UMC-11
Method in brief: as §1

`O=c1cc(N2CCOCC2)oc2c(-c3cccc4c3sc3ccccc34)cccc12` + Nc1ncn([C@H]2C[C@H](O)[C@@H](CO)O2)c(=O)n1 [Decitabine] (partner 2 µM) showed a relative viability ([1]; first compound 0.01 µM) of 1.01, a relative viability ([1]; first compound 0.03162 µM) of 1.15 and a relative viability ([1]; first compound 0.1 µM) of 1.31. The relative viability ([1]; first compound 0.3162 µM) was 0.959, the relative viability ([1]; first compound 1 µM) was 1.09 and the relative viability ([2]; first compound 0.01 µM) was 0.622. The relative viability ([2]; first compound 0.03162 µM) was 0.7, the relative viability ([2]; first compound 0.1 µM) was 0.746 and the relative viability ([2]; first compound 0.3162 µM) was 0.769. The relative viability ([2]; first compound 1 µM) was 0.667, the relative viability ([3]; first compound 0.01 µM) was 0.524 and the relative viability ([3]; first compound 0.03162 µM) was 0.539. The relative viability ([3]; first compound 0.1 µM) was 0.532, the relative viability ([3]; first compound 0.3162 µM) was 0.57 and the relative viability ([3]; first compound 1 µM) was 0.546. The relative viability ([4]; first compound 0.01 µM) was 1.05, the relative viability ([4]; first compound 0.03162 µM) was 1.02 and the relative viability ([4]; first compound 0.1 µM) was 1.01. For the same molecule, the relative viability ([4]; first compound 0.3162 µM) was 0.93, the relative viability ([4]; first compound 1 µM) was 0.95 and the relative viability ([5]; first compound 0.01 µM) was 0.392. The relative viability ([5]; first compound 0.03162 µM) was 0.398, the relative viability ([5]; first compound 0.1 µM) was 0.329 and the relative viability ([5]; first compound 0.3162 µM) was 0.359. It also gave a relative viability ([5]; first compound 1 µM) of 0.376, a relative viability ([6]; first compound 0.01 µM) of 0.632 and a relative viability ([6]; first compound 0.03162 µM) of 0.639. It also gave a relative viability ([6]; first compound 0.1 µM) of 0.774, a relative viability ([6]; first compound 0.3162 µM) of 0.59 and a relative viability ([6]; first compound 1 µM) of 0.724. For the same molecule, the relative viability ([7]; first compound 0.01 µM) was 0.611, the relative viability ([7]; first compound 0.03162 µM) was 0.716 and the relative viability ([7]; first compound 0.1 µM) was 0.544. For the same molecule, the relative viability ([7]; first compound 0.3162 µM) was 0.652, the relative viability ([7]; first compound 1 µM) was 0.692 and the relative viability ([8]; first compound 0.01 µM) was 0.228. It also gave a relative viability ([8]; first compound 0.03162 µM) of 0.227, a relative viability ([8]; first compound 0.1 µM) of 0.236 and a relative viability ([8]; first compound 0.3162 µM) of 0.249. The relative viability ([8]; first compound 1 µM) was 0.196, the relative viability ([9]; first compound 0.01 µM) was 0.457 and the relative viability ([9]; first compound 0.03162 µM) was 0.386. The relative viability ([9]; first compound 0.1 µM) was 0.391, the relative viability ([9]; first compound 0.3162 µM) was 0.371 and the relative viability ([9]; first compound 1 µM) was 0.392. For the same molecule, the relative viability ([10]; first compound 0.01 µM) was 0.71, the relative viability ([10]; first compound 0.03162 µM) was 0.762 and the relative viability ([10]; first compound 0.1 µM) was 0.713. The relative viability ([10]; first compound 0.3162 µM) was 0.736, the relative viability ([10]; first compound 1 µM) was 0.677 and the relative viability ([11]; first compound 0.01 µM) was 0.755. It also gave a relative viability ([11]; first compound 0.03162 µM) of 0.74, a relative viability ([11]; first compound 0.1 µM) of 0.711 and a relative viability ([11]; first compound 0.3162 µM) of 0.696. For the same molecule, the relative viability ([11]; first compound 1 µM) was 0.719, the relative viability ([12]; first compound 0.01 µM) was 0.28 and the relative viability ([12]; first compound 0.03162 µM) was 0.253. It also gave a relative viability ([12]; first compound 0.1 µM) of 0.256, a relative viability ([12]; first compound 0.3162 µM) of 0.291 and a relative viability ([12]; first compound 1 µM) of 0.266. The relative viability ([13]; first compound 0.01 µM) was 0.438, the relative viability ([13]; first compound 0.03162 µM) was 0.4 and the relative viability ([13]; first compound 0.1 µM) was 0.394. It also gave a relative viability ([13]; first compound 0.3162 µM) of 0.371, a relative viability ([13]; first compound 1 µM) of 0.353 and a relative viability ([14]; first compound 0.01 µM) of 0.252. It also gave a relative viability ([14]; first compound 0.03162 µM) of 0.224, a relative viability ([14]; first compound 0.1 µM) of 0.248 and a relative viability ([14]; first compound 0.3162 µM) of 0.251. The relative viability ([14]; first compound 1 µM) was 0.232, the relative viability ([15]; first compound 0.01 µM) was 0.591 and the relative viability ([15]; first compound 0.03162 µM) was 0.519. It also gave a relative viability ([15]; first compound 0.1 µM) of 0.526, a relative viability ([15]; first compound 0.3162 µM) of 0.614 and a relative viability ([15]; first compound 1 µM) of 0.502. The relative viability ([16]; first compound 0.01 µM) was 0.558, the relative viability ([16]; first compound 0.03162 µM) was 0.609 and the relative viability ([16]; first compound 0.1 µM) was 0.601. It also gave a relative viability ([16]; first compound 0.3162 µM) of 0.559, a relative viability ([16]; first compound 1 µM) of 0.569 and a relative viability ([17]; first compound 0.01 µM) of 0.405. It also gave a relative viability ([17]; first compound 0.03162 µM) of 0.436, a relative viability ([17]; first compound 0.1 µM) of 0.564 and a relative viability ([17]; first compound 0.3162 µM) of 0.452. For the same molecule, the relative viability ([17]; first compound 1 µM) was 0.388, the relative viability ([18]; first compound 0.01 µM) was 0.683 and the relative viability ([18]; first compound 0.03162 µM) was 0.678. The relative viability ([18]; first compound 0.3162 µM) was 0.748, the relative viability ([18]; first compound 1 µM) was 0.751 and the relative viability ([19]; first compound 0.01 µM) was 0.222. For the same molecule, the relative viability ([19]; first compound 0.03162 µM) was 0.218, the relative viability ([19]; first compound 0.1 µM) was 0.218 and the relative viability ([19]; first compound 0.3162 µM) was 0.21. For the same molecule, the relative viability ([19]; first compound 1 µM) was 0.193, the relative viability ([20]; first compound 0.01 µM) was 0.279 and the relative viability ([20]; first compound 0.03162 µM) was 0.255. For the same molecule, the relative viability ([20]; first compound 0.1 µM) was 0.26, the relative viability ([20]; first compound 0.3162 µM) was 0.208 and the relative viability ([20]; first compound 1 µM) was 0.228. The relative viability ([21]; first compound 0.01 µM) was 0.587, the relative viability ([21]; first compound 0.03162 µM) was 0.562 and the relative viability ([21]; first compound 0.1 µM) was 0.492. For the same molecule, the relative viability ([21]; first compound 0.3162 µM) was 0.556 and the relative viability ([21]; first compound 1 µM) was 0.687.
